Legend:
[1] = Inhibition of rat microsomal VKER
[2] = Dissociation constant, pKa of the compound; assay type: physicochemical

## CC(=O)CC(c1ccc([N+](=O)[O-])cc1)c1c(O)c2ccccc2oc1=O (stereo unspecified) [ACENOCOUMAROL]
[1]
  IC50: 770 nM

## CC(=O)CC(c1ccccc1)c1c(Cl)c2ccccc2oc1=O (stereo unspecified)
[1]
  IC50: > 500000 nM

## COc1c(C(CC(C)=O)c2ccccc2)c(=O)oc2ccccc12 (stereo unspecified)
[1]
  IC50: > 500000 nM

## O=c1oc2ccccc2c(O)c1Cc1c(O)c2ccccc2oc1=O [DICUMAROL]
[1]
  IC50: 3100 nM

## CC(=O)CC(c1ccccc1)c1c(SC[C@@H](NC(C)=O)C(=O)O)c2ccccc2oc1=O (stereo partly specified)
[1]
  IC50: > 500000 nM

## CC(=O)CC(C1=C(O)c2ccccc2C1=O)c1ccccc1 (stereo unspecified)
[1]
  IC50: 3000 nM

## CC(C)=CCC/C(C)=C/CC/C(C)=C/Cc1c(O)c2cc(C)c(C)cc2oc1=O [DIMETHYLFERULENOL]
[1]
  IC50: 340 nM

## CC(=O)CC(c1ccccc1)c1c(OS(=O)(=O)C(F)(F)F)c2ccc(O)cc2oc1=O (stereo unspecified) [WARFARIN TRIFLATE]
[1]
  IC50: > 500000 nM

## CC(=O)CC(c1ccccc1)c1c(O)oc2cc(O)ccc2c1=O (stereo unspecified)
[1]
  IC50: 250000 nM

## CC(=O)CC(c1ccccc1)c1c(O)c2ccccc2oc1=O (stereo unspecified) [WARFARIN]
[1]
  IC50: 2200 nM

## CCC(c1ccccc1)c1c(O)c2ccccc2oc1=O (stereo unspecified) [PHENPROCOUMON]
[1]
  IC50: 1800 nM

## CC(=O)CC(c1ccccc1)c1cc2ccccc2oc1=O (stereo unspecified)
[1]
  IC50: > 500000 nM

## CC(C)=CCc1c(O)c2ccccc2oc1=O [ISOPRENYLCOUMARIN]
[1]
  IC50: 79000 nM

## CC(O)CC(c1ccccc1)c1c(O)c2ccccc2oc1=O (stereo unspecified) [WARFARIN ALCOHOL]
[1]
  IC50: 12500 nM

## CC(=O)CC(c1ccccc1)c1c(O)oc2ccc(O)cc2c1=O (stereo unspecified)
[1]
  IC50: 12800 nM

## CC(=O)CC(c1ccccc1)c1c(S)c2ccccc2oc1=O (stereo unspecified)
[1]
  IC50: 18300 nM
[2]
  pKa: 6.6

## CC(C)=CCC/C(C)=C/CC/C(C)=C/Cc1c(O)c2ccccc2oc1=O
[1]
  IC50: 98 nM

## O=c1oc2ccccc2c(O)c1C1CC(c2ccc(-c3ccc(Br)cc3)cc2)Cc2ccccc21 (stereo unspecified) [BRODIFACOUM]
[1]
  IC50: 150 nM

## CC(C)=CCC/C(C)=C/CC/C(C)=C/CC1=C(O)c2ccccc2C(=O)C1=O
[1]
  IC50: 130 nM

## CCCCCCCC/C=C\CCCCCCCCc1c(O)c2ccccc2oc1=O
[1]
  IC50: 900 nM
